We go through 23 compounds from publication PMC6269873, “Substituted 3-Benzylcoumarins as Allosteric MEK1 Inhibitors: Design, Synthesis and Biological Evaluation as Antiviral Agents” (Molecules, 2013).

Read-outs that look alike come from different tables or passages of the source.

One data set deals with ERK pathway. In words: cells. To be noted: for IC50: Homo sapiens, HEK293. The data set is classed as cell-based, Human. On the procedure:
The effects of the inhibitors on the activation of ERK pathway were determined in TPA (12-O-tetradecanoylphorbol-13-acetate)-stimulated cells using the AP-1 luciferase reporter gene assay system. Activating protein-1 (AP-1) is the nuclear transcription factor which is a heterodimeric protein downstream of MAPK composed of dimers of the Fos and Jun proteins. The stable AP-1 dimers bind to DNA recognition elements (AP-1 response elements) and mediate transcriptional induction. AP-1 controls a number of cellular events including differentiation, proliferation and apoptosis. Simultaneously, the expression of AP-1 can be regulated in response to different extracellular stimuli, such as cytokines, growth factors, stress, and bacterial and viral infections. ERK pathway is the most important mediator which is closely related to these responses. Activation of ERK pathway causes induction of fos gene, and then the product heterodimerizes with the Jun protein to form the AP-1 dimers. These newly formed heterodimers can enhance the expression of c-jun through AP-1 binding sites in the c-jun promoter. TPA can increase levels of AP-1 proteins through activation of the ERK pathway.
3.4.2. AP-1 Luciferase Reporter Gene Assay
pAP1-Luc was constructed with pGL3-basic (Promega, Madison, WI. USA) and a fragment including the AP-1 response element (2× TRE) and T7 promoter. HEK 293 cells in 96-well plates were cultured at 5% CO2 at 37 °C in DMEM containing 10% FBS. When the confluence was up to 80%, cells were transinfected with pAP1-Luc using lipofectamine 2000 (Life Technologies, Carlsbad, CA. USA). At 24 h post transinfection, individual compounds with different concentrations (5, 10, 20, 30 μM) were added into cells using three wells for each concentration used. After incubation for 1 h, TPA (50 nM) was added. The cells were harvested after 4 h and luciferase activity was measured by using luciferase assay kit (Promega) with a luminometer.

The next data set has as its target phosphorylated MEK1 (Homo sapiens, UniProt Q02750). The data set can be described thus: MEK1 binding assay (HTRF, tracer displacement). To be noted: for inhibition at 2 µM: read-out: % binding (2 µM); for inhibition at 20 µM: read-out: % binding (20 µM). Here is the method:
The homogeneous time resolved fluorescence (HTRF) assay was performed on a Proxiplate-384 F plus solid back plate (Perkin Elmer, Waltham, MA. USA) with 5 nM GST tagged phosphorylated MEK1 (GST-MEK1), 2 nM europium-labeled anti-GST antibody (Eu-anti-GST), 20 nM kinase tracer 236 and test compound at a variety of concentrations. In the reaction mixture, GST-MEK1 forms a complex with the Eu-anti-GST and the tracer. Excitation of europium (the donor) using a 340-nm excitation filter results in energy transfer to the fluorophore of the tracer. This energy transfer is detected by an increase in the fluorescence emission of the tracer at 665 nm and a decrease in the fluorescence emission of europium at 615 nm. The FRET ratio was calculated by dividing the emission signal at 665 nm by the emission signal at 615 nm. A competitor compound such as a MEK inhibitor replaces the tracer from the complex and decreases the FRET ratio accordingly. The plate was incubated in dark at room temperature for 30 min before measuring the fluorescent emission of each well at 665 and 615 nm using a 340-nm excitation filter, 100-µs delay time, and 200-µs integration time, on a PHERAStar plate reader (BMG Labtech, Durham, NC, USA). […] Data shown as %Inhibition normalized to AZD6244 at 100 µM.
A general note: TR-FRET usually uses a lanthanide donor and a delayed reading to cut background.

[1] abbreviates: HTRF binding to GST tagged phosphorylated MEK1, read-out: IC50.

phosphorylated MEK1, sequence (Q02750 whole entry): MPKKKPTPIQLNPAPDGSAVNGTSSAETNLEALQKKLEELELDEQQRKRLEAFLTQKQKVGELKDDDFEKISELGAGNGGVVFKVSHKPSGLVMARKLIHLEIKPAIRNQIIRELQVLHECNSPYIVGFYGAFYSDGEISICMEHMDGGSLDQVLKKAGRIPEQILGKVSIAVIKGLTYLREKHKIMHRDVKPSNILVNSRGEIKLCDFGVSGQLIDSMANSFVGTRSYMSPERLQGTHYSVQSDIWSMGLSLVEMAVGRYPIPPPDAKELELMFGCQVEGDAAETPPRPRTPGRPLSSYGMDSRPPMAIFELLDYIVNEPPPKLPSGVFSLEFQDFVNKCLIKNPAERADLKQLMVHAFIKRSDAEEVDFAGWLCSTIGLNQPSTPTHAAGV

Regarding `CCCC(=O)Oc1ccc2c(CC)c(Cc3ccccc3)c(=O)oc2c1` [Compound 43, 3-Benzyl-4-ethyl-2-oxo-2H-chromen-7-yl butyrateen-7-yl propionate], the melting point is 102 °C. In the data set with ERK pathway, this compound registered an IC50 of 85900 ± 1460 nM. For the same compound, the IC50 on phosphorylated MEK1 (setting [1]) worked out at 473 nM. On phosphorylated MEK1, the inhibition at 2 µM stood at 45% and the inhibition at 20 µM was 54.7%.

As for `Cc1c(Cc2ccccc2)c(=O)oc2cc(OC(=O)N(C)C)c(Cl)cc12` [Compound 14, 3-Benzyl-6-chloro-4-methyl-2-oxo-2H-chromen-7-yl dimethylcarbamate], the melting point was in the range of 156 to 157 °C. Besides, in the data set with ERK pathway, the IC50 came out at 30800 ± 1400 nM. For the same compound, on phosphorylated MEK1, the IC50 turned out to be 307 nM, the inhibition at 2 µM is 66.3% and the inhibition at 20 µM worked out at 80.8%.

`CCC(=O)Oc1ccc2c(CC)c(Cc3ccccc3)c(=O)oc2c1` [Compound 36, 3-Benzyl-4-ethyl-2-oxo-2H-chromen-7-yl propionate] gave a melting point of 124 °C. In the data set on ERK pathway, this compound gave an IC50 of 49800 ± 1240 nM. Further, the half-maximal inhibitory concentration (IC50) at phosphorylated MEK1 (setting [1]) was 391 nM. At phosphorylated MEK1, the inhibition at 2 µM was 81% and the inhibition at 20 µM amounted to 87%.

In the case of `CCc1c(Cc2ccccc2)c(=O)oc2cc(OC(C)=O)ccc12` [Compound 29, 3-Benzyl-4-ethyl-2-oxo-2H-chromen-7-yl acetate], the melting point was 123 to 125 °C. In the data set with ERK pathway, this compound had an IC50 of 90500 ± 1830 nM. The half-inhibitory concentration (IC50) on phosphorylated MEK1 (setting [1]) was determined as 176 nM. In addition, on phosphorylated MEK1, the inhibition at 2 µM was 88.7% and the inhibition at 20 µM is 102%.

`CC(=O)Oc1ccc2c(C)c(Cc3ccc(F)cc3)c(=O)oc2c1` [Compound 31, 3-(4-Fluorobenzyl)-4-methyl-2-oxo-2H-chromen-7-yl acetate]: in the data set on ERK pathway, the “inhibition of ERK pathway activation (in words)” value is “more efficiently than U0126” and the IC50 turned out to be 15700 ± 1180 nM. Moreover, the IC50 on phosphorylated MEK1 (setting [1]) came to 248 nM. Moreover, at phosphorylated MEK1, the inhibition at 2 µM was 72.2% and the inhibition at 20 µM is 78.2%.

As for `CCc1c(Cc2ccccc2)c(=O)oc2cc(OC(=O)N(C)C)ccc12` [Compound 15, 3-Benzyl-4-ethyl-2-oxo-2H-chromen-7-yl dimethylcarbamate], the melting point lay within 85 to 86 °C. On phosphorylated MEK1, the IC50 was 163 nM, the inhibition at 2 µM was 85% and the inhibition at 20 µM turned out to be 92.8%.

In turn, `CCCC(=O)Oc1ccc2c(CC)c(Cc3ccc(F)cc3)c(=O)oc2c1` [Compound 46, 4-Ethyl-3-(4-fluorobenzyl)-2-oxo-2H-chromen-7-yl butyrate] gave a melting point of 79 °C. On phosphorylated MEK1, the “binding affinity (in words)” value is on record as “active”, the inhibition at 2 µM amounted to 76.9% and the inhibition at 20 µM was 96.5%. The half-inhibitory concentration (IC50) at phosphorylated MEK1 (setting [1]) worked out at 909 nM.

Take `CCCC(=O)Oc1ccc2c(C)c(Cc3ccc(F)cc3)c(=O)oc2c1` [Compound 45, 3-(4-Fluorobenzyl)-4-methyl-2-oxo-2H-chromen-7-yl butyrate]: the melting point is 85 to 86 °C. Also, the IC50 on phosphorylated MEK1 (setting [1]) was determined as 824 nM. Moreover, on phosphorylated MEK1, the inhibition at 2 µM is 45.3% and the inhibition at 20 µM came out at 72.3%.

Regarding `COc1ccc2c(C(=O)O)c(C(=O)c3ccccc3)c(=O)oc2c1` [Compound 89, 3-Benzoyl-4-carboxy-7-methoxycoumarin], the melting point is 196 to 197 °C. Besides, at phosphorylated MEK1, the inhibition at 2 µM was determined as 16.5% and the inhibition at 20 µM was 6.34%.

On to `CCCc1c(Cc2ccccc2)c(=O)oc2cc(OC(=O)N(CC)CC)ccc12` [Compound 23, 3-Benzyl-2-oxo-4-propyl-2H-chromen-7-yl diethylcarbamate], for which the melting point was in the range of 112 to 113 °C. Further, on phosphorylated MEK1, the inhibition at 2 µM turned out to be 43.1% and the inhibition at 20 µM was determined as 46.1%.

In turn, `CCCCC(=O)Oc1ccc2c(CCC)c(Cc3ccccc3)c(=O)oc2c1` [Compound 51, 3-Benzyl-2-oxo-4-propyl-2H-chromen-7-yl pentanoate] showed a melting point of 78 to 79 °C. Further, on phosphorylated MEK1, the inhibition at 2 µM was 29.5% and the inhibition at 20 µM stood at 42.5%.

`CCc1c(Cc2ccc(F)cc2)c(=O)oc2cc(OC(C)=O)ccc12` [Compound 32, 4-Ethyl-3-(4-fluorobenzyl)-2-oxo-2H-chromen-7-yl acetate] displayed a melting point of 122 to 123 °C. Further, at phosphorylated MEK1, the “binding affinity (in words)” value was “active”, the inhibition at 2 µM came out at 94.6% and the inhibition at 20 µM amounted to 101%. Further, the concentration for half-maximal inhibition (IC50) at phosphorylated MEK1 (setting [1]) came to 91.2 nM.

`CCCC(=O)Oc1cc2oc(=O)c(Cc3ccccc3)c(C)c2cc1Cl` [Compound 41, 3-Benzyl-6-chloro-4-methyl-2-oxo-2H-chromen-7-yl butyrate] registered a melting point of 107 to 108 °C. Further, at phosphorylated MEK1, the inhibition at 2 µM amounted to 21% and the inhibition at 20 µM was 25.8%.

`COc1ccc2cc(Cc3ccc(F)cc3)c(=O)oc2c1` [Compound 84, 3-(4-Fluorobenzyl)-7-methoxy-2H-chromen-2-one]: the melting point lay within 94 to 95 °C. Further, at phosphorylated MEK1, the inhibition at 2 µM was determined as 17.6% and the inhibition at 20 µM is 15.4%.

Turning to `CCCCC(=O)Oc1cc2oc(=O)c(Cc3ccccc3)c(C)c2cc1Cl` [Compound 49, 3-Benzyl-6-chloro-4-methyl-2-oxo-2H-chromen-7-yl pentanoate], the melting point lay in the range of 108 to 109 °C. At phosphorylated MEK1, the inhibition at 2 µM was 8.15% and the inhibition at 20 µM was 20.3%.

Turning to `Cc1c(Cc2ccccc2)c(=O)oc2cc(OC(=O)C(C)(C)C)ccc12` [Compound 55, 3-Benzyl-4-methyl-2-oxo-2H-chromen-7-yl pivalate], the melting point fell in the range of 157 to 158 °C. Moreover, at phosphorylated MEK1, the inhibition at 2 µM was found to be 14.6% and the inhibition at 20 µM turned out to be 14.8%.

Compound `CCC(=O)Oc1ccc2c(CC)c(Cc3ccc(F)cc3)c(=O)oc2c1` [Compound 39, 4-Ethyl-3-(4-fluorobenzyl)-2-oxo-2H-chromen-7-yl propionate] came in with a melting point of 97 to 98 °C. On phosphorylated MEK1, the “binding affinity (in words)” value was “active”, the inhibition at 2 µM was 75.4% and the inhibition at 20 µM came out at 76.3%. The IC50 on phosphorylated MEK1 (setting [1]) was 140 nM.

As for `Cc1c(Cc2ccccc2)c(=O)oc2cc(OC(=O)c3ccccc3)ccc12` [Compound 62, 3-Benzyl-4-methyl-2-oxo-2H-chromen-7-yl benzoate], the melting point was in the range of 149 to 150 °C. On phosphorylated MEK1, the inhibition at 2 µM came to 4.07% and the inhibition at 20 µM came out at 31.1%.

As for `CCCCC(=O)Oc1ccc2c(CC)c(Cc3ccc(F)cc3)c(=O)oc2c1` [Compound 52, 4-Ethyl-3-(4-fluorobenzyl)-2-oxo-2H-chromen-7-yl pentanoate], the melting point was in the range of 70 to 71 °C. Besides, at phosphorylated MEK1, the “binding affinity (in words)” value was “inactive”, the inhibition at 2 µM was 42.8% and the inhibition at 20 µM stood at 34%.

`CCN(CC)C(=O)Oc1ccc2c(C)c(Cc3ccc(F)cc3)c(=O)oc2c1` [Compound 24, 3-(4-Fluorobenzyl)-4-methyl-2-oxo-2H-chromen-7-yl diethylcarbamate] displayed a melting point of 101 to 102 °C. For the same compound, at phosphorylated MEK1, the inhibition at 2 µM came out at 22.3% and the inhibition at 20 µM was 27.8%.

`CCCc1c(Cc2ccccc2)c(=O)oc2cc(OC(=O)C(C)(C)C)ccc12` [Compound 58, 3-Benzyl-2-oxo-4-propyl-2H-chromen-7-yl pivalate] had a melting point of 138 to 139 °C. Also, on phosphorylated MEK1, the inhibition at 2 µM was determined as 43.2% and the inhibition at 20 µM is 19.1%.

Compound `CCC(=O)Oc1cc2oc(=O)c(Cc3ccccc3)c(C)c2cc1Cl` [Compound 34, 3-Benzyl-6-chloro-4-methyl-2-oxo-2H-chromen-7-yl propionate] had a melting point of 124 to 126 °C. Besides, the concentration for half-maximal inhibition (IC50) on phosphorylated MEK1 (setting [1]) turned out to be 326 nM. On phosphorylated MEK1, the inhibition at 2 µM is 70% and the inhibition at 20 µM came out at 72.4%.

Compound `O=c1cc(CO)c2ccc(O)cc2o1` [Compound 4j, 7-Hydroxy-4-(hydroxymethyl)-2H-chromen-2-one] gave a melting point of 148 to 149 °C. For the same compound, at phosphorylated MEK1, the inhibition at 2 µM stood at 36.3% and the inhibition at 20 µM was determined as 33.6%.

In general, IC50 refers to the concentration that inhibits the measured activity by half. What is called melting point is the temperature, or range, at which the solid turns liquid.
